These results are taken from patent publication US20230253066A1, “DESIGNED PROTEINS FOR LIGAND BINDING” (The Regents of the University of California, priority 2020, published 2023).

Molecules are shown by their SMILES.

What is called Kd is the free concentration of one partner at which half of the binding sites on the other are occupied at equilibrium, for simple one-to-one binding.

The assay deals with ABLE. Nature of the assay: Fluorescence anisotropy ligand competition on ABLE (displacement of apixaban-peg-FITC). The class given is binding. The method, then: We performed fluorescence anisotropy experiments (54, 55) of ABLE and LABLE using a FITC fluorophore conjugated to apixaban as the fluorescent probe (FIGS. 512A-512D and Scheme 1). We serially diluted a concentrated protein solution containing 25 nM Apx-peg-FITC, holding constant the concentration of Apx-peg-FITC. Parallel and perpendicularly polarized emission at 528 nm (10 nm slit width, 510 nm long pass filter) were integrated for 10 seconds after 485 nm (5 nm slit width) excitation of the FITC fluorophore of Apx-peg-FITC. The data were fit to a single-site binding model (Equation 2, with N=1) (FIG. S12B). We performed ligand competition experiments (54, 55) by adding aliquots of a concentrated ligand stock in DMSO into an approximately 50% bound complex of protein and Apx-peg-FITC (25 nM). The decrease in anisotropy as a function of competing ligand was fit to a competitive binding model (54, 55) (FIG. 4D and FIG. S12C and FIG. S12D). Because effects of DMSO on the anisotropy of bound ABLE/Apx-peg-FITC complex become more pronounced at high concentrations of DMSO (>4%), we fit only the initial data points at low DMSO concentration (% DMSO <2%, FIG. 4D). […] DMSO may have a minor effect on competitive binding with weaker competitors (i.e., apixabanCOO^− and rivaroxaban), where high concentrations of competitor are needed to decrease anisotropy. As such, the reported dissociation constants of these weaker competitors can be viewed as a lower limit to the KD. Fluorescence polarization competition with apixaban as competitor gives a KD of 7 (±1) μM for the apixaban/ABLE complex (FIG. 4D), which agrees with that of the more precise spectral titration [KD=5 (±1) μM]. Binding experiments were performed at least twice to confirm reproducibility, and the reported errors correspond to the uncertainty in the fit parameters.
A general note: In fluorescence polarisation assays a small probe gives low polarisation when free and higher when bound to something large.

For the molecule `O=C(NC[C@H]1CN(c2ccc(N3CCOCC3=O)cc2)C(=O)O1)c1ccc(Cl)s1` [rivaroxaban], the “binding to ABLE (in words)” value (competition with apixaban-peg-FITC) is “only very weak binding”. Consider `COc1ccc(-n2nc(C(N)=O)c3c2C(=O)N(c2ccc(N4CCCCC4=O)cc2)CC3)cc1` [apixaban], for which the Kd (ABLE 20 μM, apixaban-peg-FITC 25 nM, 50 mM NaPi, 100 mM NaCl, pH 7.4, fit of initial points at DMSO <2%, KD of weaker competitors viewed as lower limit, read-out: KD of competing ligand for ABLE, competitive binding model) worked out at 7 µM. Further, the “fold tighter binding to ABLE than rivaroxaban” value (fluorescence polarization competition, FIG. 4D) came out at 20 fold.
